According to ChEMBL document CHEMBL3217417, “PRIMACINS, N-cinnamoyl-primaquine conjugates, with improved liver-stage antimalarial activity” (Medchemcomm, 2012):

Experiments:
[1] = Cytotoxicity against human HuH7 cells assessed as cell viability by alamarblue assay; assay type: cell-based; details: huh-7
Plasmodium berghei [2] = experiment: Antiplasmodial activity against liver stage of Plasmodium berghei sporozoites expressing firefly luciferase infected in human Huh7 cells assessed as inhibition of parasite development treated 1 hr prior to infection followed by compound replenisment at 24 hrs post-infection measured 48 hrs after infection by bioluminescence analysis; assay type: functional, organism-based; details: Huh-7, Liver
Plasmodium falciparum = experiment: Antiplasmodial activity against erythrocyte stage of Plasmodium falciparum W2 assessed as growth inhibition after 48 hrs by flow cytometry; assay type: functional, organism-based; details: W2, 48 h
Plasmodium berghei [3] = experiment: Ratio of primaquine IC50 to compound IC50 against liver stage of Plasmodium berghei sporozoites expressing firefly luciferase infected in human Huh7 cells; assay type: functional, Huh-7

Row | Structure (SMILES) | Activity [1] | IC50 (Plasmodium berghei [2]) | IC50 (Plasmodium falciparum) | Ratio IC50 (Plasmodium berghei [3])
1 | COc1cc(NC(C)CCCNC(=O)/C=C/c2ccc([N+](=O)[O-])cc2)c2ncccc2c1 (centres undefined) | Non-toxic | 2.24 µM | ≥ 10 µM | >2
2 | COc1cc(NC(C)CCCNC(=O)/C=C/c2ccc(F)cc2)c2ncccc2c1 (centres undefined) | Non-toxic | 2.33 µM | ≥ 10 µM | >2
3 | COc1cc(NC(C)CCCNC(=O)/C=C/c2ccccc2)c2ncccc2c1 (centres undefined) | Non-toxic | 2.01 µM | ≥ 10 µM | >2
4 | COc1ccc(/C=C/C(=O)NCCCC(C)Nc2cc(OC)cc3cccnc23)cc1 (centres undefined) | Non-toxic |  | ≥ 10 µM | >2
5 | COc1cc(NC(C)CCCNC(=O)/C=C/c2ccc(C(C)C)cc2)c2ncccc2c1 (centres undefined) | Non-toxic | 1.54 µM | 4.84 µM | >2
6 | C[C@@H]1CC[C@H]2[C@@H](C)C(=O)O[C@@H]3O[C@@]4(C)CC[C@@H]1[C@]32OO4 [ARTEMISININ] |  |  | 0.00564 µM | 
7 | COc1cc(NC(C)CCCNC(=O)/C=C/c2ccc(Br)cc2)c2ncccc2c1 (centres undefined) | Non-toxic | 1.38 µM | ≥ 10 µM | >2
8 | COc1cc(NC(C)CCCNC(=O)/C=C/c2cccc(F)c2)c2ncccc2c1 (centres undefined) | Non-toxic | 1.63 µM | ≥ 10 µM | >2
9 | COc1cc(NC(C)CCCNC(=O)/C=C/c2ccc(C)cc2)c2ncccc2c1 (centres undefined) | Non-toxic | 2.13 µM | ≥ 10 µM | >2
10 | COc1cc(NC(C)CCCNC(=O)/C=C/c2ccc(Cl)cc2)c2ncccc2c1 (centres undefined) | Non-toxic | 2.39 µM | ≥ 10 µM | >2
11 | COc1cc(NC(C)CCCNC(=O)/C=C/c2ccccc2[N+](=O)[O-])c2ncccc2c1 (centres undefined) | Non-toxic | 2.36 µM | ≥ 10 µM | >2
12 | COc1cc(NC(C)CCCNC(=O)/C=C/c2cccc([N+](=O)[O-])c2)c2ncccc2c1 (centres undefined) | Non-toxic | 2.12 µM | ≥ 10 µM | >2
